According to PubChem BioAssay (NCI):
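Results reflect a 48-hour exposure of cells in 96-well plates to compound at five concentrations. The concentration for full growth arrest is given as TGI.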

Experiments:
Assay in all cases: growth of human tumour cells (NCI), 48 h
A498 renal = test system: A498 renal
BT-549 breast = test system: BT-549 breast
DU-145 prostate = test system: DU-145 prostate
HOP-92 NSCLC = test system: HOP-92 NSCLC
LOX IMVI melanoma = test system: LOX IMVI melanoma
M14 melanoma = test system: M14 melanoma
MCF7 breast = test system: MCF7 breast
NCI-H460 lung = test system: NCI-H460 lung
OVCAR-3 ovarian = test system: OVCAR-3 ovarian
OVCAR-4 ovarian = test system: OVCAR-4 ovarian
OVCAR-5 ovarian = test system: OVCAR-5 ovarian
RXF 393 renal = test system: RXF 393 renal
SF-268 CNS = test system: SF-268 CNS
SK-MEL-2 melanoma = test system: SK-MEL-2 melanoma
SNB-19 CNS = test system: SNB-19 CNS
SNB-75 CNS = test system: SNB-75 CNS
T-47D breast = test system: T-47D breast
TK-10 renal = test system: TK-10 renal
UACC-62 melanoma = test system: UACC-62 melanoma
UO-31 renal = test system: UO-31 renal

Structure (SMILES) | TGI (A498 renal) | TGI (BT-549 breast) | TGI (DU-145 prostate) | TGI (HOP-92 NSCLC) | TGI (LOX IMVI melanoma) | TGI (M14 melanoma) | TGI (MCF7 breast) | TGI (NCI-H460 lung) | TGI (OVCAR-3 ovarian) | TGI (OVCAR-4 ovarian) | TGI (OVCAR-5 ovarian) | TGI (RXF 393 renal) | TGI (SF-268 CNS) | TGI (SK-MEL-2 melanoma) | TGI (SNB-19 CNS) | TGI (SNB-75 CNS) | TGI (T-47D breast) | TGI (TK-10 renal) | TGI (UACC-62 melanoma) | TGI (UO-31 renal)
Nc1c(/C=C/c2cc3cc(C4=NCCN4)ccc3o2)[nH]c2cc(C3=NCCN3)ccc12 | > 100 µM | > 100 µM | > 100 µM | > 100 µM | > 100 µM | > 100 µM | > 100 µM | > 100 µM | > 100 µM | > 100 µM | > 100 µM | > 100 µM | > 100 µM | > 100 µM | > 100 µM | > 100 µM | > 100 µM | 67 µM | > 100 µM | > 100 µM
CC1=C(C(=O)OC(C)(C)C)C(c2ccc([N+](=O)[O-])cc2)C(C(=O)OC(C)(C)C)=C(C)N1 | 37.6 µM | 44.1 µM | 62.4 µM | 29.7 µM | 32.9 µM | 47.6 µM | 31.8 µM | 38.6 µM | 36.7 µM | 37.4 µM | 34.9 µM | 36.2 µM | 56.4 µM | 46.6 µM | 75.8 µM | 61.2 µM | 33.4 µM | 38.1 µM | 34.8 µM | 33.5 µM
CC(=O)OC/C=C/Cn1nc(Br)c(=O)[nH]c1=O | > 100 µM | > 100 µM | > 100 µM | > 100 µM | > 100 µM | > 100 µM | > 100 µM | > 100 µM | > 100 µM | > 100 µM | > 100 µM | > 100 µM | > 100 µM | > 100 µM | > 100 µM | > 100 µM | > 100 µM | > 100 µM | > 100 µM | > 100 µM
O=C1Cc2c(-c3ccccc3)cc(-c3ccc(Cl)cc3)nc2-c2ccccc2N1 | 3.67 µM | 40.2 µM | > 90.2 µM | 8.72 µM | 21.9 µM | > 70.4 µM | > 72.2 µM | 11.5 µM | 22.8 µM | 3.82 µM | > 83.7 µM | 17.3 µM | 20 µM | 49.4 µM | 6.35 µM | 8.77 µM | 17.8 µM | 14.3 µM | > 31 µM | 7.31 µM
CC(=O)OC1C(C)OC(OC2C[C@](O)(C(C)=O)Cc3c(O)c4c(c(O)c32)C(=O)c2ccccc2C4=O)C(F)C1OC(C)=O (stereo not given in full) | 2.87 µM | 33.2 µM | 4.59 µM | 6.52 µM | 3.65 µM | 10.7 µM | > 20.2 µM | 1.53 µM | 9.9 µM | 41.8 µM | 5.45 µM | 18.9 µM | 24.6 µM | 11.3 µM | 4.99 µM | 4.33 µM | 41.2 µM | 4.29 µM | 2.81 µM | 0.567 µM
CCCSC1=N/C(=C\c2ccco2)C(=O)N1 | > 100 µM | > 100 µM | > 100 µM | > 100 µM | > 100 µM | > 100 µM | > 100 µM | > 100 µM | > 100 µM | > 100 µM | > 100 µM | > 100 µM | > 100 µM | > 100 µM | > 100 µM | > 100 µM | > 100 µM | > 100 µM | > 100 µM | > 100 µM
O=C1c2sccc2C(=O)c2c(CO)csc21 | 31.8 µM | 12 µM | 9.37 µM | 26.1 µM | 10.6 µM | 7.55 µM | 18.9 µM | 6.96 µM | 6.3 µM | 9.46 µM | > 53 µM | 3.22 µM | 30.7 µM | 8.63 µM | 20.8 µM | 15.1 µM | 17.5 µM | 23 µM | 5.67 µM | 26.2 µM
N#Cc1c2c(c(Nc3ccc(Cl)cc3)n3c1nc1ccccc13)CCCC2 | > 100 µM | > 100 µM | > 100 µM | > 100 µM | > 100 µM | > 100 µM | > 100 µM | > 100 µM | > 100 µM | > 96.6 µM | > 100 µM | > 85.1 µM | > 100 µM | > 100 µM | > 64.2 µM | > 100 µM | > 100 µM | > 100 µM | > 100 µM | > 100 µM
CN1Cc2c(ccc3c2OCO3)[C@@H]2[C@H](O)Cc3cc4c(cc3[C@@H]21)OCO4 | 6.07 µM | > 100 µM | > 30.6 µM | > 100 µM | > 47.3 µM | > 28.4 µM | > 48.7 µM | > 100 µM | > 100 µM | > 100 µM | > 100 µM | > 26.2 µM | > 26.5 µM | > 27.1 µM | > 26.5 µM | 7.64 µM | > 100 µM | > 100 µM | > 24 µM | > 100 µM
CCCCCNC(=O)OC1CCn2c1nc1c2C(=O)C(C)=C(N2CC2)C1=O (stereo not given) | 3.31 µM | 3.08 µM | 2.37 µM | 72 µM | 1.07 µM | 4.04 µM | 2.21 µM | 1.05 µM | 7.05 µM | 4.98 µM | 7.77 µM | 1.82 µM | 4.84 µM | 3.7 µM | 11.5 µM | 2.69 µM | 7.16 µM | 12.5 µM | 3.54 µM | 3.87 µM
CO/C(N)=C(\C#N)N=Cc1cccs1 | > 100 µM | > 100 µM | > 100 µM | > 100 µM | > 100 µM | > 100 µM | > 100 µM | > 100 µM | > 100 µM | > 100 µM | > 100 µM | > 100 µM | > 100 µM | > 100 µM | > 100 µM | > 100 µM | > 100 µM | > 100 µM | > 100 µM | > 100 µM
N#Cc1c(N)n(-c2nc3ccccc3s2)c(=O)c2cc([N+](=O)[O-])ccc12 | 98.1 µM | > 62.7 µM | > 100 µM | 42.3 µM | 19.7 µM | > 55 µM | 41.3 µM | > 65.8 µM | 51.9 µM | > 100 µM | > 79 µM | 41.9 µM | > 49.6 µM | 40.3 µM | > 77.1 µM | > 48.3 µM | > 100 µM | > 100 µM | 66.8 µM | > 79.2 µM
CNC(=O)N(C)C(=O)c1ccccc1C(=O)N(C)C(=O)NC | > 10 µM | > 10 µM | > 10 µM | > 10 µM | > 10 µM | > 10 µM | > 10 µM | > 10 µM | > 10 µM | > 10 µM | > 10 µM | > 10 µM | > 10 µM | > 10 µM | > 10 µM | > 10 µM | > 10 µM | > 10 µM | > 10 µM | > 10 µM
Cc1nnc(N)s/c1=N/O | > 100 µM | > 100 µM | > 100 µM | > 100 µM | > 100 µM | > 100 µM | > 100 µM | > 100 µM | > 100 µM | > 100 µM | > 100 µM | > 100 µM | > 100 µM | > 100 µM | > 100 µM | > 100 µM | > 100 µM | > 100 µM | > 100 µM | > 100 µM
CCOC(=O)C(NC(=O)c1cccc(Cl)c1)(N1CCN(c2cc3c(cc2F)c(=O)c(C(=O)O)cn3CC)CC1)C(F)(F)F (stereo not given) | 51 µM | 43.7 µM | 88.3 µM | 33.4 µM | 48.7 µM | 31.9 µM | 37.2 µM | 81.2 µM | 38.2 µM | 53 µM | 33 µM | 39.4 µM | 35.3 µM | 31.1 µM | > 100 µM | 61.2 µM | 51.4 µM | 56.6 µM | 32.4 µM | 46.6 µM
COc1cc(CC2C(=O)OCC2Cc2ccc(OC)c(OC)c2)ccc1O (stereo not given) | > 100 µM | > 100 µM | > 100 µM | > 100 µM | > 100 µM | > 100 µM | > 100 µM | > 100 µM | > 100 µM | > 100 µM | > 100 µM | > 100 µM | > 100 µM | > 100 µM | > 100 µM | > 100 µM | > 100 µM | > 100 µM | > 100 µM | > 100 µM
CC(=O)CC(=O)N1CCOC1=O | > 10 µM | > 10 µM | > 10 µM | > 10 µM | > 10 µM | > 10 µM | > 10 µM | > 10 µM | > 10 µM | > 10 µM | > 10 µM | > 10 µM | > 10 µM | > 10 µM | > 10 µM | > 10 µM | > 10 µM | > 10 µM | > 10 µM | > 10 µM
COc1ccc(/[N+]([O-])=C/c2ccccc2OC(=S)S)cc1 | > 100 µM | 66.6 µM | > 100 µM | 64.4 µM | 52.7 µM | 91.5 µM | > 100 µM | > 100 µM | > 100 µM | > 100 µM | > 100 µM | > 100 µM | > 100 µM | 65.7 µM | > 100 µM | > 100 µM | > 100 µM | > 100 µM | > 100 µM | > 100 µM
